One compound from patent US8834841B2, “Imaging agents” (priority 2005, dated 2014) can be followed below.

Data set [1] concerns A549 (lung), DU145 (prostate), SKOV3 (ovary), and MDA MB468 (breast) tumor-bearing SCID mice. The data set is described as follows: in vivo biodistribution studies, summary over tumor models. As to conditions: injected intravenously. How it is done: For the in vitro amino acid uptake studies, all cells can be grown to monolayer confluency in T-175 culture flasks [Corning, Corning, N.Y.] (approx. 1×10^8 cells/flask) in Dulbecco's Modified Eagle's Medium (DMEM) [Sigma, St. Louis, Mo.] in a humidified incubator (37° C., 5% CO2/95% air). Media are supplemented with 10% fetal calf serum [Hyclone, Logan, Utah], and antibiotics (10,000 U/ml penicillin and 10 mg/ml streptomycin) (Sigma, St. Louis, Mo.). For tissue culture passage, monolayer cells are detached by gentle trypsinization, resuspended in complete media, and split 1:10 into new T-flasks. Cultures are passaged weekly, and fed fresh media every 2 to 3 days. To initiate tumor growth in SCID mice, 1×10^6 cells are injected s.c. bilaterally into the flanks (inguinal region) of the recipient animals using a 1 ml syringe with a 27 gauge needle. Ex vivo experiments can be performed with animals containing tumors weighing between 500 mg and 1 g, as estimated by caliper measurement (tumor weight=(π/6)*abc, where a, b and c are the tumor length, width and height, respectively). The compounds of the invention are further evaluated for their tumor specificity and selectivity in tumor-bearing animal models. One can evaluate and compare the transport, accumulation and tissue distribution of each compound in these in vivo animal studies. Tissue distribution of the compounds is measured in SCID mice (average weight, 20-25 g) bearing human tumors as follows. The candidate radioligands (20 uCi in 0.4 ml 0.9% NaCl) are injected into the tail vein of tumor-bearing mice. The animals are sacrificed (cervical dislocation) at 5, 30, 60 and 120 minutes post-injection. Tissues (blood, heart, liver, lungs, kidneys, bone, thyroid, muscle, brain and tumor) are excised, rinsed in saline, and blotted dry. The tissues are weighed, placed into 12×75 mm glass vials, the radioactivity determined with a gamma counter, and the percent dose/gram calculated. Total activities of blood and muscle are calculated by assuming that they account for 7% and 40% of the total body mass, respectively. As exemplified above, the amino acid compounds of the invention have advantageous physiological characteristics (i.e., tumor binding specificity and selectivity, in vivo stability etc).

The next data set has as its system DU145 prostate carcinoma. Nature of the data set: in vitro amino acid uptake, DU145 cells. The class given is cell-based, human. An excerpt:
(§1) The inventive compounds have been evaluated in vitro for tumor binding specificity (i.e. uptake cells) using a variety of tumor cell lines available in the art, along with reference compounds such as Me-AIB and BCH. Detailed description of these assays can be found in Martarello et al. (2002) Journal of Medicinal Chemistry, 45:2250-2259 and McConathy et al. (2003) Nuclear Medicine and Biology, 30:477-490. These, so called “amino acid uptake studies” are typically carried out with radiolabeled compounds in at least five phenotypically different human tumor cell lines (e.g. A549 lung carcinoma, MB468 breast carcinoma, DU145 prostate carcinoma, SKOV3 ovarian carcinoma, and U87 glial blastoma). These tumor cell lines can be grown either in vitro or in vivo with severe combined immunodeficiency (SCID) mice as a host. The fore-mentioned tumor cell lines are available at the Winship Cancer Institute of Emory University.
(§2) For the in vitro amino acid uptake studies, all cells can be grown to monolayer confluency in T-175 culture flasks [Corning, Corning, N.Y.] (approx. 1×10^8 cells/flask) in Dulbecco's Modified Eagle's Medium (DMEM) [Sigma, St. Louis, Mo.] in a humidified incubator (37° C., 5% CO2/95% air). Media are supplemented with 10% fetal calf serum [Hyclone, Logan, Utah], and antibiotics (10,000 U/ml penicillin and 10 mg/ml streptomycin) (Sigma, St. Louis, Mo.). For tissue culture passage, monolayer cells are detached by gentle trypsinization, resuspended in complete media, and split 1:10 into new T-flasks. […]
(§3) In the in vitro studies the uptake rate of each amino acid compound is measured in each tumor line, as well as the dominant transport mechanisms of each tumor cell line. After trypsinization, cells are resuspended in serum-free media, then counted on a hemocytometer, with viability assessed through Trypan blue staining. […] The vials are placed in a Cobra-II gamma counter (Packard, Meriden, Conn.), with the activity per cell number determined. […] Saline washes are performed as described above, and the filtered cells radioactivity determined on the gamma counter. […]

The next data set deals with A549 lung carcinoma. Nature of the data set: in vitro amino acid uptake, A549 cells. The format is cell-based, human.
Text: as §1, §2, §3

For data set [2], the system named is type “L” type large-neutral amino acid transport system. Nature of the data set: in vitro uptake studies in human tumor cells, summary. The class given is cell-based. Conditions: U87, DU145, A549, SKOV3, MB468 cells (Table 1).
Text: The inventive compounds have been evaluated in vitro for tumor binding specificity (i.e. uptake cells) using a variety of tumor cell lines available in the art, along with reference compounds such as Me-AIB and BCH. Detailed description of these assays can be found in Martarello et al. (2002) Journal of Medicinal Chemistry, 45:2250-2259 and McConathy et al. (2003) Nuclear Medicine and Biology, 30:477-490. These, so called “amino acid uptake studies” are typically carried out with radiolabeled compounds in at least five phenotypically different human tumor cell lines (e.g. A549 lung carcinoma, MB468 breast carcinoma, DU145 prostate carcinoma, SKOV3 ovarian carcinoma, and U87 glial blastoma). These tumor cell lines can be grown either in vitro or in vivo with severe combined immunodeficiency (SCID) mice as a host. […]
as §3

Where [3] appears, read: 120 min p.i., range over tumor models.

Structures are written as SMILES.

Consider `NC1(C(=O)O)CCC1[18F]` [Anti-R,S 2-[^18F]FACBC, (R,S) anti-1-amino-2-[^18F]fluorocyclobutyl-1-carboxylic acid], for which the tumor uptake in data set [1] (setting [3]) is listed as 1.4-3.4 % dose/g. In addition, in data set [1] (setting [3]), the tumor-to brain ratio is 15-30. Besides, in data set [1] (setting [3]), the tumor-to kidney ratio is 1.5-2.7. Besides, the tumor-to liver ratio in data set [1] (setting [3]) is on record as 2.4-4. For the same compound, the tumor-to muscle ratio in data set [1] (setting [3]) is given as 2-4. Moreover, the “accumulation of radioactivity in tumors” value in data set [1] was “rapid and prolonged accumulation of radioactivity in tumors”. The “% Dose Uptake/0.5e6 Cells” value in the data set on DU145 prostate carcinoma (DU145, No inhibitor) is 6.40 +/− 0.60 % Dose Uptake/0.5e6 Cells; with DU145 prostate carcinoma (DU145, inhibitor BCH (10 mM)), 1.78 +/− 0.20 % Dose Uptake/0.5e6 Cells; in the data set on DU145 prostate carcinoma (DU145, inhibitor MeAlB (10 mM)) it was 2.07 +/− 0.26 % Dose Uptake/0.5e6 Cells; in the data set with A549 lung carcinoma (A549, No inhibitor), 8.89 +/− 0.36 % Dose Uptake/0.5e6 Cells; in the data set with A549 lung carcinoma (A549, inhibitor BCH (10 mM)), 3.99 +/− 0.39 % Dose Uptake/0.5e6 Cells; in the data set with A549 lung carcinoma (A549, inhibitor MeAlB (10 mM)), 6.93 +/− 0.20 % Dose Uptake/0.5e6 Cells. Moreover, the “uptake by the type “L” type large-neutral amino acid transport system” value in data set [2] is listed as “high uptake”.
